Like-named read-outs stand apart in the source and are kept apart here.
Tests used:
alpha 2C receptor = alpha 2C receptor (Homo sapiens, UniProt P18825); assay: cell-based
Text: (§1) In contrast, a method for measuring alpha receptor agonist selectivity comprises the RSAT (Receptor Selection and Amplification Technology) assay as reported in Messier et al., High Throughput Assays Of Cloned Adrenergic, Muscarinic, Neurokinin And Neurotrophin Receptors In Living Mammalian Cells, Pharmacol. Toxicol. 76:308-11 (1995) and has been adapted for use with alpha 2 receptors. This publication is incorporated by reference herein. The assay measures a receptor-mediated loss of contact inhibition that results in selective proliferation of receptor-containing cells in a mixed population of confluent cells. The increase in cell number is assessed with an appropriate transfected marker gene such as b-galactosidase, the activity of which can be easily measured in a 96-well format. Receptors that activate the G protein, Gq, elicit this response. Alpha2 receptors, which normally couple to Gi, activate the RSAT response when coexpressed with a hybrid Gq protein that has a Gi receptor recognition domain, called Gq/i5^2. See Conklin et al., Substitution Of Three Amino Acids Switches Receptor Specificity Of Gqa To That Of Gia, Nature 363:274-6. (1993) This reference is hereby incorporated by reference herein.
(§2) The data presented below was collected using the RSAT assay described above.
(§3) Efficacy of a given receptor or receptor subtype in accordance with the present invention is determined using the RSAT assay procedure described above.

alpha 2B receptor = alpha 2B receptor (Homo sapiens, UniProt P18089); assay: cell-based
Text: as §1, §2, §3

[1] = in vivo, ip
[2] = Text: 30 C57B1/B6 type mice (8-12 weeks old) are allowed to acclimate for 12-14 days before experimental use.
[3] = system: dopaminergic neurons in the ventral tegmental area; conditions: MPTP mice; brimonidine 3 mg/kg/day
alpha 1A receptor = alpha 1A receptor (Homo sapiens, UniProt P35348); conditions: RSAT assay; alpha 2 subtypes versus alpha 1A
[4] = system: dopaminergic neurons in the substantia nigra

SMILES: Clc1ccc2nsnc2c1NC1=NCCN1 [Tizanidine, tizanidine]
- EC50 (alpha 2C receptor): 1.69 µM
- EC50 (alpha 2B receptor): 0.127 µM
- concentration at which sedative effect first becomes noticeable [1]: about 100 micrograms/kg

SMILES: Brc1c(NC2=NCCN2)ccc2nccnc12 [Brimonidine, brimonidine]
- Open Field activity versus vehicle + MPTP group ([2]; 10 and 30 days post MPTP, brimonidine 3 mg/kg/day): no significant difference between this group and the vehicle group
- forelimb extension impairment, tail hang test ([2]; during the period that the compound is administered): does not reduce this impairment
- forelimb extension impairment, tail hang test ([2]; post-dosing (after 14 days of compound administration)): does tend to reduce the impairment
- reduction of MPTP-induced neuron loss in the Ventral Tegmental area [3]: about 10%
- greater activity at each alpha 2 receptor subtype than at the alpha 1A receptor (alpha 1A receptor): at least 5.5 fold
- neuron loss in the substantia nigra versus MPTP-treated animals ([4]; MPTP mice, brimonidine 3 mg/kg/day): significantly less neuron loss
- Average Neuron Count (statistical error) ([4]; substantia nigra, TH-labeled neurons, 55-60 days post MPTP 40 mg/kg sc, brimonidine 3 mg/kg/day sc mini-pump 14 days): 32 (±1)

SMILES: Cc1cccc([C@H](C)c2cnc[nH]2)c1C [Dexmedetomidine, dexmedetomidine]
- EC50 (alpha 2C receptor): 0.001 µM
- EC50 (alpha 2B receptor): 0.002 µM
